{
  "source": "patent US12201608B2",
  "about": "“Methods for treating Parkinson's disease by administering resiniferatoxin” (Sorrento Therapeutics, Inc., priority 2018, dated 2025)",
  "assay_type_in_all_cases": "in vivo, C57Bl/6J male mice",
  "key": {"[1]": {"test": "Body weight monitoring in AAV-A53T / AAV-Null infused mice", "details": "single intrathecal 0.04 μg or 0.125 μg, 7 or 14 days after AAV-A53T or AAV-Null infusion, 8 week study, two-way ANOVA", "experimental": "(§1) For this study, a total of 110 male C57Bl/6J mice two months of age were infused with either AAV-A53T (90 mice) or AAV-Null (20 mice) into substantia nigra unilaterally to induce PD-like pathology or to serve as sham controls, respectively. Mice infused with AAV-Null (empty) vector (“sham-infused” mice) were used in order to control for the effect of the viral infusion. After 7 or 14 days of AAV-A53T mediated disease model induction, the mice were treated with RTX (0.04 μg or 0.125 μg) (5 μL volume, prepared from a 25 μg/ml RTX solution containing Polysorbate 80 at 0.03% w/v, dextrose at 0.05% w/v, Phosphate Buffer at 30 mM, and NaCl 0.54% w/v, pH 7.2, and diluted in saline as needed) by single intrathecal infusion at lumbar spinal cord area. One AAV-Null and AAV-A53T infused group per each time point were treated with vehicle instead of RTX.\n(§2) The mice were then treated with RTX or vehicle by intrathecal infusion 7 or 14 days after AAV infusion. […]\nBody weight of the animals was monitored two times per week. […] Dopamine and its metabolites were analyzed from ipsilateral and contralateral striata by high performance liquid chromatography (HPLC).\nBody weight of the mice was measured twice-per week (on Mondays and Fridays) for the whole study duration."}, "[2]": {"system": "AAV-A53T mouse model of Parkinson's Disease-like (PD) pathology", "test": "Fine motor gait analysis accounting for left-right asymmetry (D7 data reevaluated)", "details": "for maximum left-right difference of hip angle: vs AAV-A53T Vehicle", "experimental": "D7 fine motor gait analysis data from the study described above was reevaluated to determine how left-right asymmetry is manifested on kinematic parameters instead of assessing changes which occur bilaterally and that are captured in the “normal” overall gait score.\nTypically, both the left and right sides of an animal are assessed for test parameters and the overall score and discriminant vector is based on the average of both the left and right-side values for a particular parameter. For example, the maximum hip angle is determined by the average of the left and right-side angle and it is similar in both AAV-Null Vehicle and AAV-A53T Vehicle groups. However, as shown in FIGS. 8A-8C when the left and right side measurements of the maximum hip angle were analyzed separately, the hip angle max of AAV-A53T Vehicle treated mice is smaller on the left side (FIG. 8A) than on the right side (FIG. 8B) when compared to AAV-Null mice.\nFine motor gait analysis was performed by creating a discriminant vector using the transformed data set, where left-right difference is used instead of the average of left and right."}, "[3]": {"test": "Adverse effects and mortality monitoring in the main AAV-A53T study", "experimental": "as §1, §2\nAnimals were monitored daily by laboratory personnel. […]"}, "[4]": {"details": "both RTX groups, vs AAV-A53T Vehicle D7"}},
  "note": "Entries after “also recorded” stand apart in the source; their conditions may differ.",
  "data": [
    {"smiles": "C=C(C)[C@]12C[C@@H](C)[C@@]34O[C@](Cc5ccccc5)(O[C@@H]1[C@@H]3C=C(COC(=O)Cc1ccc(O)c(OC)c1)C[C@]1(O)C(=O)C(C)=C[C@@H]41)O2", "note": "[RTX, Resiniferatoxin]", "values": [
      {"measurement": "body weight", "setting": "[1]", "value": "steady weight gain was observed similarly in vehicle and RTX treated groups; also recorded: No significant differences between the groups"},
      {"measurement": "body weight", "setting": "[1]; listed as resiniferatoxin", "value": "No significant differences between the groups"},
      {"measurement": "maximum left-right difference of hip angle", "setting": "[2]; AAV-A53T and 0.05 μg RTX (n=14)", "value": "reduction in the maximum difference"},
      {"measurement": "maximum left-right difference of hip angle", "setting": "[2]; AAV-A53T and 0.124 μg RTX (n=14)", "value": "reduction in the maximum difference"},
      {"measurement": "hindlimb peak swing speed, left-right difference", "setting": "[2]; [4]", "value": "reduced"},
      {"measurement": "hindlimb swing speed, left-right difference", "setting": "[2]; [4]", "value": "reduced"},
      {"measurement": "left-right gait difference Discriminant Vector Score", "setting": "[2]; both RTX groups, vs AAV-A53T vehicle, p<0.05 unpaired t-test", "value": "significantly lower"},
      {"measurement": "diagonal interlimb coordination, left-right difference", "setting": "[2]; low and high RTX dose groups", "value": "less of a a diagonal interlimb coordination difference"},
      {"measurement": "mortalities, distribution between groups", "setting": "[3]; 6 mice out of 110 lost including vehicle-treated mice, attributed to surgical procedure and anesthesia", "value": "evenly spread between the vehicle and both RTX low and high dose groups"},
      {"measurement": "adverse effects of intrathecal RTX administration", "setting": "[3]; low or high dose (0.04 μg or 0.125 μg), D7 or D14", "value": "No significant adverse effects"}
    ]}
  ]
}
